Results reported in PubChem BioAssay AID1963967 (Molecular Pharmacology Branch, DTP, NCI, 2024).

Test system: 855422-203-R-J1-PDC spheroids with HUVEC/MSC, viability
Experiment: Anticancer human tumor 855422-203-R-J1-PDC patient-derived bladder carcinoma cell line growth inhibition [PI3K]
Settings: for IC50: curve of first compound; for viability, T/C: stronger effect = lower value
Summary of the method: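 Spheroid viability read-out. Co-cultures contained the tumor line plus HUVEC and human MSCs. Each agent was paired with a PI3K inhibitor (inavolisib, alpelisib, duvelisib, copanlisib) across half-log dilutions starting at clinical Cmax, or at 10 microM when Cmax was unknown.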

[1] = second compound 0.0316 µM, first compound 0.0316 µM
[2] = second compound 0.0316 µM, first compound 0.1 µM
[3] = second compound 0.0316 µM, first compound 0.316 µM
[4] = second compound 0.0316 µM, first compound 1 µM
[5] = second compound 0.0316 µM, first compound 3.16 µM
[6] = second compound 0.0316 µM, first compound 10 µM
[7] = second compound 0.1 µM, first compound 0.0316 µM
[8] = second compound 0.1 µM, first compound 0.1 µM
[9] = second compound 0.1 µM, first compound 0.316 µM
[10] = second compound 0.1 µM, first compound 1 µM
[11] = second compound 0.1 µM, first compound 3.16 µM
[12] = second compound 0.1 µM, first compound 10 µM
[13] = second compound 0.316 µM, first compound 0.0316 µM
[14] = second compound 0.316 µM, first compound 0.1 µM
[15] = second compound 0.316 µM, first compound 0.316 µM
[16] = second compound 0.316 µM, first compound 1 µM
[17] = second compound 0.316 µM, first compound 3.16 µM
[18] = second compound 0.316 µM, first compound 10 µM
[19] = second compound 1 µM, first compound 0.0316 µM
[20] = second compound 1 µM, first compound 0.1 µM
[21] = second compound 1 µM, first compound 0.316 µM
[22] = second compound 1 µM, first compound 1 µM
[23] = second compound 1 µM, first compound 3.16 µM
[24] = second compound 1 µM, first compound 10 µM
[25] = second compound 0.00316 µM, first compound 0.0316 µM
[26] = second compound 0.00316 µM, first compound 0.1 µM
[27] = second compound 0.00316 µM, first compound 0.316 µM
[28] = second compound 0.00316 µM, first compound 1 µM
[29] = second compound 0.00316 µM, first compound 3.16 µM
[30] = second compound 0.00316 µM, first compound 10 µM
[31] = second compound 0.01 µM, first compound 0.0316 µM
[32] = second compound 0.01 µM, first compound 0.1 µM
[33] = second compound 0.01 µM, first compound 0.316 µM
[34] = second compound 0.01 µM, first compound 1 µM
[35] = second compound 0.01 µM, first compound 3.16 µM
[36] = second compound 0.01 µM, first compound 10 µM
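Note: agents incubated with spheroids for one week before read-out.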
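Throughout, for viability, T/C: 100% = DMSO vehicle-treated control wells.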

`Cn1nccc1Nc1nccc(-c2ccn(C(CO)c3ccc(Cl)c(F)c3)c(=O)c2)n1` (stereo not drawn) + Cc1nc(NC(=O)N2CCCC2C(N)=O)sc1-c1ccnc(C(C)(C)C(F)(F)F)c1 showed an IC50 (second compound 0.0316 µM) of 9.48 µM, an IC50 (second compound 0.1 µM) of 8.22 µM and an IC50 (second compound 0.316 µM) of 6.99 µM. It also gave an IC50 (second compound 1 µM) of 4.27 µM, an IC50 (second compound 3.16 µM) of under 0.0316 µM and an IC50 (second compound 10 µM) of under 0.0316 µM. It also gave a viability, T/C [1] of 106%, a viability, T/C [2] of 95.9% and a viability, T/C [3] of 103%. It also gave a viability, T/C [4] of 89%, a viability, T/C [5] of 86.4% and a viability, T/C [6] of 47.5%. For the same compound, the viability, T/C [7] was 99.3%, the viability, T/C [8] was 93.3% and the viability, T/C [9] was 94.8%. The viability, T/C [10] was 85.9%, the viability, T/C [11] was 85% and the viability, T/C [12] was 43.2%. For the same compound, the viability, T/C [13] was 96%, the viability, T/C [14] was 89.3% and the viability, T/C [15] was 96.4%. It also gave a viability, T/C [16] of 92.2%, a viability, T/C [17] of 87.9% and a viability, T/C [18] of 32.8%. For the same compound, the viability, T/C [19] was 70.1%, the viability, T/C [20] was 70.1% and the viability, T/C [21] was 63.4%. It also gave a viability, T/C [22] of 67.5%, a viability, T/C [23] of 61.5% and a viability, T/C [24] of 17.9%. For the same compound, the viability, T/C (second compound 3.16 µM, first compound 0.0316 µM) was 42.3%, the viability, T/C (second compound 3.16 µM, first compound 0.1 µM) was 39.6% and the viability, T/C (second compound 3.16 µM, first compound 0.316 µM) was 40.7%. It also gave a viability, T/C (second compound 3.16 µM, first compound 1 µM) of 35.2%, a viability, T/C (second compound 3.16 µM, first compound 3.16 µM) of 26.9% and a viability, T/C (second compound 3.16 µM, first compound 10 µM) of 10.1%. For the same compound, the viability, T/C (second compound 10 µM, first compound 0.0316 µM) was 24.6%, the viability, T/C (second compound 10 µM, first compound 0.1 µM) was 21.6% and the viability, T/C (second compound 10 µM, first compound 0.316 µM) was 19.4%. It also gave a viability, T/C (second compound 10 µM, first compound 1 µM) of 14.4%, a viability, T/C (second compound 10 µM, first compound 3.16 µM) of 8.05% and a viability, T/C (second compound 10 µM, first compound 10 µM) of 4.78%.
`C[C@@H](NC(=O)c1ncnc(N)c1Cl)c1ncc(C(=O)Nc2cc(C(F)(F)F)c(Cl)cn2)s1` + CC(Nc1ccc2c(c1)OCCn1cc(N3C(=O)OCC3C(F)F)nc1-2)C(N)=O was tested, and the IC50 (second compound 0.00316 µM) was over 10 µM, the IC50 (second compound 0.01 µM) was over 10 µM and the IC50 (second compound 0.0316 µM) was over 10 µM. The IC50 (second compound 0.1 µM) was over 10 µM, the IC50 (second compound 0.316 µM) was under 0.0316 µM and the IC50 (second compound 1 µM) was under 0.0316 µM. The viability, T/C [25] was 106%, the viability, T/C [26] was 83% and the viability, T/C [27] was 122%. For the same compound, the viability, T/C [28] was 83.3%, the viability, T/C [29] was 116% and the viability, T/C [30] was 109%. For the same compound, the viability, T/C [31] was 99.8%, the viability, T/C [32] was 86.2% and the viability, T/C [33] was 85.4%. The viability, T/C [34] was 84.9%, the viability, T/C [35] was 118% and the viability, T/C [36] was 98.4%. The viability, T/C [1] was 79.8%, the viability, T/C [2] was 85.4% and the viability, T/C [3] was 102%. For the same compound, the viability, T/C [4] was 83%, the viability, T/C [5] was 95.5% and the viability, T/C [6] was 69.3%. The viability, T/C [7] was 58.7%, the viability, T/C [8] was 61.5% and the viability, T/C [9] was 80%. The viability, T/C [10] was 68%, the viability, T/C [11] was 81.8% and the viability, T/C [12] was 35%. The viability, T/C [13] was 47.3%, the viability, T/C [14] was 49.1% and the viability, T/C [15] was 49.7%. It also gave a viability, T/C [16] of 54%, a viability, T/C [17] of 43.4% and a viability, T/C [18] of 23.9%. The viability, T/C [19] was 34.8%, the viability, T/C [20] was 40.4% and the viability, T/C [21] was 32.6%. It also gave a viability, T/C [22] of 33.6%, a viability, T/C [23] of 30.9% and a viability, T/C [24] of 14.1%.
For `CC(Cn1ccc(-c2ccc(C#N)c(Cl)c2)n1)NC(=O)c1cc(C(C)O)[nH]n1` (stereo not drawn) + CC(Nc1ccc2c(c1)OCCn1cc(N3C(=O)OCC3C(F)F)nc1-2)C(N)=O, the IC50 (second compound 0.00316 µM) was over 10 µM, the IC50 (second compound 0.01 µM) was over 10 µM and the IC50 (second compound 0.0316 µM) was over 10 µM. It also gave an IC50 (second compound 0.1 µM) of over 10 µM, an IC50 (second compound 0.316 µM) of 1.67 µM and an IC50 (second compound 1 µM) of under 0.0316 µM. The viability, T/C [25] was 106%, the viability, T/C [26] was 88% and the viability, T/C [27] was 115%. The viability, T/C [28] was 86.7%, the viability, T/C [29] was 99% and the viability, T/C [30] was 86%. The viability, T/C [31] was 105%, the viability, T/C [32] was 82.4% and the viability, T/C [33] was 107%. The viability, T/C [34] was 99.9%, the viability, T/C [35] was 88.4% and the viability, T/C [36] was 79.6%. For the same compound, the viability, T/C [1] was 83.3%, the viability, T/C [2] was 83.7% and the viability, T/C [3] was 82%. For the same compound, the viability, T/C [4] was 85%, the viability, T/C [5] was 97.8% and the viability, T/C [6] was 70.3%. For the same compound, the viability, T/C [7] was 67.1%, the viability, T/C [8] was 71.9% and the viability, T/C [9] was 75.6%. The viability, T/C [10] was 71.8%, the viability, T/C [11] was 66.4% and the viability, T/C [12] was 63.4%. The viability, T/C [13] was 53.4%, the viability, T/C [14] was 51.3% and the viability, T/C [15] was 59.7%. The viability, T/C [16] was 49.6%, the viability, T/C [17] was 46.1% and the viability, T/C [18] was 44.7%. For the same compound, the viability, T/C [19] was 35.6%, the viability, T/C [20] was 40.9% and the viability, T/C [21] was 36.1%. The viability, T/C [22] was 36.2%, the viability, T/C [23] was 33.6% and the viability, T/C [24] was 28.9%.
In the case of `Cn1ncnc1[C@H]1c2n[nH]c(=O)c3cc(F)cc(c23)N[C@@H]1c1ccc(F)cc1` + COc1c(OCCCN2CCOCC2)ccc2c3n(c(=NC(=O)c4cnc(N)nc4)nc12)CCN3, the IC50 (second compound 0.00316 µM) is reported as over 0.1 µM, the IC50 (second compound 0.01 µM) is reported as over 0.1 µM and the IC50 (second compound 0.0316 µM) is reported as over 0.1 µM. It also gave an IC50 (second compound 0.1 µM) of under 0.000316 µM, an IC50 (second compound 0.316 µM) of under 0.000316 µM and an IC50 (second compound 1 µM) of under 0.000316 µM. It also gave a viability, T/C (second compound 0.00316 µM, first compound 0.000316 µM) of 97.2%, a viability, T/C (second compound 0.00316 µM, first compound 0.001 µM) of 98% and a viability, T/C (second compound 0.00316 µM, first compound 0.00316 µM) of 98.6%. The viability, T/C (second compound 0.00316 µM, first compound 0.01 µM) was 90.5%, the viability, T/C [25] was 90.8% and the viability, T/C [26] was 91.7%. It also gave a viability, T/C (second compound 0.01 µM, first compound 0.000316 µM) of 88.8%, a viability, T/C (second compound 0.01 µM, first compound 0.001 µM) of 80.7% and a viability, T/C (second compound 0.01 µM, first compound 0.00316 µM) of 78%. It also gave a viability, T/C (second compound 0.01 µM, first compound 0.01 µM) of 97.2%, a viability, T/C [31] of 94.6% and a viability, T/C [32] of 92.2%. For the same compound, the viability, T/C (second compound 0.0316 µM, first compound 0.000316 µM) was 65.5%, the viability, T/C (second compound 0.0316 µM, first compound 0.001 µM) was 62.2% and the viability, T/C (second compound 0.0316 µM, first compound 0.00316 µM) was 62.2%. The viability, T/C (second compound 0.0316 µM, first compound 0.01 µM) was 52.7%, the viability, T/C [1] was 52.7% and the viability, T/C [2] was 53.1%. The viability, T/C (second compound 0.1 µM, first compound 0.000316 µM) was 24.2%, the viability, T/C (second compound 0.1 µM, first compound 0.001 µM) was 25.9% and the viability, T/C (second compound 0.1 µM, first compound 0.00316 µM) was 29.1%. For the same compound, the viability, T/C (second compound 0.1 µM, first compound 0.01 µM) was 27.5%, the viability, T/C [7] was 22.9% and the viability, T/C [8] was 24.5%. The viability, T/C (second compound 0.316 µM, first compound 0.000316 µM) was 9.77%, the viability, T/C (second compound 0.316 µM, first compound 0.001 µM) was 8.64% and the viability, T/C (second compound 0.316 µM, first compound 0.00316 µM) was 8.11%. It also gave a viability, T/C (second compound 0.316 µM, first compound 0.01 µM) of 8.04%, a viability, T/C [13] of 7.3% and a viability, T/C [14] of 8.75%. It also gave a viability, T/C (second compound 1 µM, first compound 0.000316 µM) of 4.95%, a viability, T/C (second compound 1 µM, first compound 0.001 µM) of 3.74% and a viability, T/C (second compound 1 µM, first compound 0.00316 µM) of 3.02%. It also gave a viability, T/C (second compound 1 µM, first compound 0.01 µM) of 3.29%, a viability, T/C [19] of 4.31% and a viability, T/C [20] of 3.2%.
